Measurements reported in EP0025288A1, “Derivatives of monic acid, processes for their preparation, compositions containing them and their preparation” (priority 1979, dated 1981).
≈ marks a conversion by molar mass, not a printed value.

How the values were obtained:
E coli NCTC 10418 = experiment: MIC, veterinary bacteria; type: cell-based; settings: veterinary bacteria (Table 2), read-out: MIC
E coli E1 = experiment: MIC, veterinary bacteria; type: cell-based; settings: veterinary bacteria (Table 2), read-out: MIC
S dublin S7 = experiment: MIC, veterinary bacteria; type: cell-based; settings: veterinary bacteria (Table 2), read-out: MIC
S typhimurium S18 = experiment: MIC, veterinary bacteria; type: cell-based; settings: veterinary bacteria (Table 2), read-out: MIC
Bord bronchiseptica BO8 = experiment: MIC, veterinary bacteria; type: cell-based; settings: veterinary bacteria (Table 2), read-out: MIC
Bord bronchisptica BO9 = experiment: MIC, veterinary bacteria; type: cell-based; settings: veterinary bacteria (Table 2), read-out: MIC
Past multocida PA1 = experiment: MIC, veterinary bacteria; type: cell-based; settings: veterinary bacteria (Table 2), read-out: MIC
Past multocida PA2 = experiment: MIC, veterinary bacteria; type: cell-based; settings: veterinary bacteria (Table 2), read-out: MIC
Past Haemolytica PA5 = experiment: MIC, veterinary bacteria; type: cell-based; settings: veterinary bacteria (Table 2), read-out: MIC
[1] = test system: Erysipelothrix rhusiopathiae NCTC 8163; experiment: MIC, veterinary bacteria; type: cell-based; settings: NCTC8163, veterinary bacteria (Table 2), read-out: MIC
[2] = test system: Corynebacterium pyogenes CY1; experiment: MIC, veterinary bacteria; type: cell-based; settings: veterinary bacteria (Table 2), read-out: MIC
[3] = test system: Staph aureus B4 (pen resis); experiment: MIC, veterinary bacteria; type: cell-based; settings: Staphylococcus aureus, veterinary bacteria (Table 2), read-out: MIC
[4] = test system: Staph aureus 152 (pen sens); experiment: MIC, veterinary bacteria; type: cell-based; settings: Staphylococcus aureus, veterinary bacteria (Table 2), read-out: MIC
Staph aureus Oxford = experiment: MIC, veterinary bacteria; type: cell-based; settings: Staphylococcus aureus, veterinary bacteria (Table 2), read-out: MIC
[5] = test system: Strep suis (group D) SPS11; experiment: MIC, veterinary bacteria; type: cell-based; settings: veterinary bacteria (Table 2), read-out: MIC
Strep uberis SPU1 = experiment: MIC, veterinary bacteria; type: cell-based; settings: veterinary bacteria (Table 2), read-out: MIC
Strep dysgalaciae SPD1 = experiment: MIC, veterinary bacteria; type: cell-based; settings: veterinary bacteria (Table 2), read-out: MIC
Strep agalactiae SPA1 = experiment: MIC, veterinary bacteria; type: cell-based; settings: veterinary bacteria (Table 2), read-out: MIC
M suipneumoniae Str 11 = experiment: MIC, anti-mycoplasmal, Friis' broth microtiter method; type: cell-based; settings: read-out: in vitro MIC, BROTH
[6] = test system: M suipneumoniae J2206/183b; experiment: as above; type: cell-based; settings: read-out: in vitro MIC, BROTH
M dispar H225 = experiment: as above; type: cell-based; settings: read-out: in vitro MIC, BROTH
M dispar NCTC 10125 = experiment: as above; type: cell-based; settings: read-out: in vitro MIC, BROTH
M pneumoniae 427a = experiment: as above; type: cell-based; settings: read-out: in vitro MIC, BROTH
M pneumoniae ATCC 15492 = experiment: as above; type: cell-based; settings: read-out: in vitro MIC, BROTH
M fermentans MWKL4 = experiment: as above; type: cell-based; settings: read-out: in vitro MIC, BROTH
M pulmonis JB = experiment: as above; type: cell-based; settings: read-out: in vitro MIC, BROTH
[7] = Serum binding by ultrafiltration; type: in vitro ADME, pig; settings: pig, serum, compounds at 8 mcg/ml, microbiological assay (B. subtilis ATCC 6633), read-out: % bound to pig serum (converted)
Protocol: Serum binding was assessed by ultrafiltration of procine serum containing compounds at 8 mcg/ml, and through an Amicon CF50A ultrafiltration cone. Separation of ultrafiltrate was achieved by centrifugation.

[8] = Mean serum concentration in neonatal piglets after intramuscular or oral administration; type: in vivo; settings: pig, 50 mg/kg; for concentration at 1 h: 60'
Protocol: e) Mean serum concentration in neonatal piglets of Examples 4 and 5 after intramuscular or oral administration at 50 mg/kg
Blood levels were assessed in neonatal piglets (2 to 4 animals per group and man bodyweights about 2 kg). The dose was 50 mg/kg (dose solution = 25 mg/ml in 25% ethanol). Doses were given by intramuscular injection and orally by stomach tube. Piglets were bled at intervals up to 8 and at 24 hours, and serum assayed microbiologically (B. subtilis ATCC 6633).

## CC(=CC(=O)OCCCC(=O)c1cccs1)CC1OCC(CC2OC2C(C)C(C)O)C(O)C1O (centres unmarked) [Example 4, 4(1-Thienyl-2-ylbutan-1-onyl) monate A]
E coli NCTC 10418
  MIC: > 80 µg/mL
E coli E1
  MIC: > 80 µg/mL
S dublin S7
  MIC: > 80 µg/mL
S typhimurium S18
  MIC: > 80 µg/mL
Bord bronchiseptica BO8
  MIC: 40 µg/mL (≈ 80.5 µM)
Bord bronchisptica BO9
  MIC: 5 µg/mL (≈ 10.1 µM)
Past multocida PA1
  MIC: 0.312 µg/mL (≈ 0.628 µM)
Past multocida PA2
  MIC: 0.07 µg/mL (≈ 0.141 µM)
Past Haemolytica PA5
  MIC: 5 µg/mL (≈ 10.1 µM)
[1]
  MIC: 20 µg/mL (≈ 40.3 µM)
[2]
  MIC: > 80 µg/mL
[3]
  MIC: 0.156 µg/mL (≈ 0.314 µM)
[4]
  MIC: 0.156 µg/mL (≈ 0.314 µM)
Staph aureus Oxford
  MIC: 0.156 µg/mL (≈ 0.314 µM)
[5]
  MIC: 2.5 µg/mL (≈ 5.03 µM)
Strep uberis SPU1
  MIC: < 0.019 µg/mL
Strep dysgalaciae SPD1
  MIC: 0.156 µg/mL (≈ 0.314 µM)
Strep agalactiae SPA1
  MIC: 0.312 µg/mL (≈ 0.628 µM)
M suipneumoniae Str 11
  MIC: 0.078 µg/mL (≈ 0.157 µM)
[6]
  MIC: 0.078 µg/mL (≈ 0.157 µM)
M dispar H225
  MIC: < 0.02 µg/mL
M dispar NCTC 10125
  MIC: 0.039 µg/mL (≈ 0.0785 µM)
M pneumoniae 427a
  MIC: 0.312 µg/mL (≈ 0.628 µM)
M pneumoniae ATCC 15492
  MIC: 0.312 µg/mL (≈ 0.628 µM)
M fermentans MWKL4
  MIC: < 0.02 µg/mL
M pulmonis JB
  MIC: < 0.02 µg/mL
[7]
  fraction unbound: 0.012
[8]; im
  concentration at 10 min: 9000 ng/mL
  concentration at 20 min: 8900 ng/mL
  concentration at 40 min: 10000 ng/mL
  concentration at 1 h: 8500 ng/mL
  concentration at 2 h: 3300 ng/mL
  concentration at 3 h: 1900 ng/mL
  concentration at 4 h: 1600 ng/mL
  concentration at 6 h: 830 ng/mL
  concentration at 8 h: 710 ng/mL
  concentration at 24 h: < 120 ng/mL
[8]; po
  concentration at 10 min: 5300 ng/mL
  concentration at 20 min: 5500 ng/mL
  concentration at 40 min: 6500 ng/mL
  concentration at 1 h: 5700 ng/mL
  concentration at 2 h: 2400 ng/mL
  concentration at 3 h: 1400 ng/mL
  concentration at 4 h: 1400 ng/mL
  concentration at 6 h: 770 ng/mL
  concentration at 8 h: 740 ng/mL
  concentration at 24 h: 150 ng/mL
